Results reported in US12209096B2, “Compounds and compositions for inducing chondrogenesis” (NOVARTIS AG, priority 2017, dated 2025).

How the values were obtained:
NHACs = assay: calcium flux assay; format: cell-based, human; settings: Homo sapiens; for Emax: read-out: (A) % Efficacy
Method in brief: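 FLIPR fluorescence (ex 470–495 nm, em 515–575 nm) was read before and after compound dispense at the indicated dose. Chondrocytes (NHACs), 2000 cells/well, had been dye-loaded 24 h after plating with Calcium 5 in HBSS/HEPES plus 5 mM probenecid, 1 h, room temperature.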

[1] = system: human chondrogenic progenitor cell (CPCs); assay: Collagen type II assay (chondrogenic differentiation); format: cell-based; settings: 432 h, hCPCs, 18 days; for Emax: read-out: (B) % Efficacy; for EC50: read-out: (B) EC50
Procedure: To initiate chondrogenesis in primary CPCs, 8000 cells were plated/well in a Costar 96 well plate in MSCGM. After 24 hours the MSCGM was removed and replaced with DMEM containing 1% FBS. The test compound was then added to each well at the indicated dose. The cultures were grown at 37° C. for 18 days. A media supplement of an additional 50 μl of DMEM containing 1% FBS was given 10 days after chondrogenic induction.
To detect the presence of Collagen type II, hCPCs were fixed with 10% formalin for 20 minutes, permeablized with PBS containing 0.1% triton X-100, 0.2 mg/ml of Collagenase 2 for 10 minutes, blocked with PBS containing 5% BSA for 1 hr at room temperature, followed by incubation with primary antibody (anti-type II collagen antibody) in PBS containing 1% BSA overnight at 4° C. Cells were washed 3 times with PBS and incubated with fluorophore-conjugated secondary antibody and Hoechst dye for 1 hour at room temperature, followed by washing with PBS for 3 times.
The total intensity of staining was imaged by fluoresecent microscopy and/or quantified by high content imagining with the ImageXpress Micro (Molecular Devices, Sunnyvale, CA). Data analyses were performed with the customized multiwavelength cell-scoring application.

[2] = system: normal human articular chondrocytes (NHACs); assay: alkaline phosphatase assay in NHAC; format: cell-based; settings: Homo sapiens, Chondrocyte, 240 h, 10 days; for Emax: read-out: (C) % Efficacy; for IC50: read-out: (C) IC50
Procedure: To initiate differentiation in NHACs, 16,000 cells were plated/well in Costar 96 well plate in CGM media (Lonza). After 24 hours the MSCGM was removed and replaced with DMEM containing 1% FBS. The test compound was then added to each well at the indicated dose. The cultures were grown at 37° C. for 10 days.
To detect the presence of hypertrophic cells, NHACs were fixed with 10% formalin and Hoeschst dye for 20 minutes, rinsed in PBS, then stained with Fast Blue RR Salt with Naphthol AS-MX Phosphate Alkaline Solution.
The total intensity of staining was imaged by fluoresecent microscopy, using the 651 wavelength, and/or quantified by high content imagining with the ImageXpress Micro (Molecular Devices, Sunnyvale, CA). Data analyses were performed with the customized multiwavelength cell-scoring application.

C3H10T1/2 cell line = assay: alkaline phosphatase assay in C3H10T1/2; format: cell-based; settings: Mus musculus, C3H 10T1/2, 144 h, alkaline phosphatase assay in C3H10T1/2, 6 days; for Emax: read-out: (D) % Efficacy; for IC50: read-out: (D) IC50
Method in brief: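 Mouse C3H10T1/2 Clone 8 cells in DMEM/10% FBS dosed 24 h after plating, then cultured 6 days at 37° C. Fixed cells stained for alkaline phosphatase (Fast Blue RR/Naphthol AS-MX), imaged at 561 nm; readout is ALP-positive cells per well by high-content imaging.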

[3] = intrinsic clearance in rat liver microsomes; format: in vitro ADME
[4] = intrinsic clearance in human liver microsomes; format: in vitro ADME
CYP3A4 = CYP3A4 (Homo sapiens, UniProt P08684); assay: CYP3A4 inhibition; format: in vitro ADME; settings: read-out: CYP3A4 inh.
Chain of CYP3A4 (P08684 whole entry): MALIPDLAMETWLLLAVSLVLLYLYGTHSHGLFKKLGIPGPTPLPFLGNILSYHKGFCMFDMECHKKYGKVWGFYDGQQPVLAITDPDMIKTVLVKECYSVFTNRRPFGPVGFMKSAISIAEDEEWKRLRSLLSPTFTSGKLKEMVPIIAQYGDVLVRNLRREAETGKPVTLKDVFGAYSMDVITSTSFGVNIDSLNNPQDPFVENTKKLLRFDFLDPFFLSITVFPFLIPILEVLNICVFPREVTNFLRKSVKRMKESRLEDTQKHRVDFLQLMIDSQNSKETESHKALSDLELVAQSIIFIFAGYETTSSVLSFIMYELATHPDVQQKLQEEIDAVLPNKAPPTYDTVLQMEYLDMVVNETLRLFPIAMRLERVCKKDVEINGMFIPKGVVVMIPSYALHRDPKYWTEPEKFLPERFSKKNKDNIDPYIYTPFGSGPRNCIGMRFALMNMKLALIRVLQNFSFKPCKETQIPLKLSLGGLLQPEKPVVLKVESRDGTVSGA

EC50 (NHACs) [µM] | IC50 (C3H10T1/2 cell line) [µM] | microsomal CLint [3] [µL/min/mg] | microsomal CLint [4] [µL/min/mg] | IC50 (CYP3A4) [µM] | SMILES | Emax (NHACs) [%] | Emax [1] [%] | EC50 [1] [µM] | Emax [2] [%] | IC50 [2] [µM] | Emax (C3H10T1/2 cell line) [%]
> 50 | > 20 | – | – | – | O=C(Nc1ccc(Cl)c(Cl)c1)[C@H]1[C@@H](c2ccnc(F)c2)[C@H]2O[C@@H]1C[C@@H]2O (single isomer, unassigned) [Example 52a] | 96 | 80 | 0.49 | 71 | 17 | 36
> 50 | > 20 | – | – | – | Cc1cc([C@H]2[C@H]3O[C@H](C[C@@H]3O)[C@@H]2C(=O)Nc2cnc(Cl)c(Cl)c2)ccn1 (single isomer, unassigned) [Example 83] | 38 | 150 | 1.5 | 106 | 12 | 34
– | – | 7 | 7 | > 25 | O=C(Nc1ccc(Cl)c(Cl)c1)[C@H]1[C@@H](c2ccncc2)[C@H]2O[C@@H]1C[C@@H]2O | – | – | – | – | – | –
0.27 | > 20 | – | – | – | O=C(Nc1cccc(C(F)(F)F)c1)[C@H]1[C@@H](c2ccncc2)[C@H]2O[C@@H]1C[C@@H]2O (single isomer, unassigned) [Example 11a] | 98 | 91 | 2.9 | 65 | 48 | 6
29 | > 20 | – | – | – | Cc1cc([C@@H]2[C@@H]3O[C@@H]([C@@H](O)[C@H]3O)[C@H]2C(=O)Nc2ccc(Cl)c(Cl)c2)ccn1 (single isomer, unassigned) [Example 157] | 57 | 59 | 2.1 | 84 | 32 | 15
– | – | 466 | 202 | 6 | O=C(Nc1ccc(Cl)c(Cl)c1)[C@H]1[C@@H](c2ccncc2)[C@@H]2CC[C@H]1O2 [reference compound] | – | – | – | – | – | –
22 | 1.5 | – | – | – | Cc1cc([C@H]2[C@H]3O[C@H](C[C@H]3N3CCOCC3)[C@@H]2C(=O)Nc2ccc(Cl)c(Cl)c2)ccn1 [Example 177, (1R,2R,3S,4R,5R)—N-(3,4-dichlorophenyl)-3-(2-methylpyridin-4-yl)-5-morpholino-7-oxabicyclo[2.2.1]heptane-2-carboxamide] | 211 | 34 | 1.5 | 33 | > 50 | 103
– | – | 243 | 38 | 5 | Nc1cc([C@@H]2[C@@H](C(=O)Nc3ccc(Cl)c(Cl)c3)[C@H]3CC[C@@H]2O3)ccn1 [reference compound] | – | – | – | – | – | –
22 | 6.6 | – | – | – | O=C(Nc1ccc(Cl)c(Cl)c1)[C@@H]1[C@@H](c2ccnc(F)c2)[C@H]2O[C@@H]1C[C@@H]2O (single isomer, unassigned) [Example 142a] | 68 | 83 | 1.2 | 93 | 33 | 81
> 50 | > 20 | – | – | – | O=C(Nc1cnc(Cl)c(Cl)c1)[C@@H]1[C@@H](c2ccnc(F)c2)[C@H]2O[C@@H]1C[C@@H]2O (single isomer, unassigned) [Example 90a] | 101 | 65 | 2.3 | 98 | > 50 | 48
26 | > 20 | – | – | – | Cc1cc([C@H]2[C@H]3O[C@H](C[C@@H]3O)[C@@H]2C(=O)Nc2ccc(Cl)c(Cl)c2)ccn1 (single isomer, unassigned) [Example 77a] | 182 | 120 | 0.69 | 114 | 3.5 | 45
– | – | 11 | 7 | 20 | Nc1cc([C@H]2[C@H]3O[C@H](C[C@@H]3O)[C@@H]2C(=O)Nc2ccc(Cl)c(Cl)c2)ccn1 [drawing 199] | – | – | – | – | – | –
